The text below walks through data of US20240101531A1, “PYRIDINAMINE DERIVATIVES AND THEIR USE AS POTASSIUM CHANNEL MODULATORS” (Xenon Pharmaceuticals Inc., priority 2022, published 2024).

The experiment addresses human KV7.2/KV7.3 (Homo sapiens (Human), UniProt O43525+O43526). Put plainly: Potassium flux assay (IPG-2 AM dye). It is filed as cell-based. The settings on record: TREX HEK 293 or HEK 293 cells expressing human KV7.2/KV7.3; arithmetic mean values. An excerpt: This potassium flux assay employs the cell-permeable, potassium-sensitive dye, IPG-2 AM, to quantify potassium ion flux through potassium channels.
In general, TREX HEK 293 or HEK 293 cells were stably transfected with either an inducible or non-inducible expression vector containing the full-length cDNA coding for the desired human KV7.2/KV7.3 or in combination with another full-length cDNA for a second desired human KV7 potassium channel. Potassium channel-expressing cell lines were induced with tetracycline (1 μg/mL), if required, and plated on 384-well poly-D-lysine (PDL)-coated plates in culture media (DMEM, containing 10% FBS and 1% L-glutamine). After overnight incubation, culture media was removed and cells were loaded with 5 μM IPG-2 AM dye for 1 hour in Assay buffer (140 mM NaCl, 20 mM RbCl, 2 mM CaCl2, 1 mM MgCl2, 10 mM HEPES (4-(2-hydroxyethyl)-1-piperazineethanesulfonic acid buffer), 10 mM glucose, adjusted with Tris to pH 7.4). Excess dye was removed, and cells incubated at room temperature for 20 minutes with or without test compound. A Hamamatsu FDSS μCell was used to perform a 1:1 addition of K challenge buffer (150 mM NaCl, 10 mM HEPES, 2 mM CaCl2, 10 mM KCl, 1 mM MgCl2, 10 mM glucose, adjusted with Tris to pH 7.4 for human KV7.2/KV7.3, and simultaneously read plates at excitation wavelength of 530 nm and emission wavelength of 558 nm. Non-potassium channel-mediated potassium influx was determined in the presence of DMSO, and maximal influx was determined in the presence of a known KV7.x channel modulator. For each test compound, a concentration response curve was generated with 16 concentrations points, 2-fold serial dilution starting at 30 μM and an EC50 value was determined.

Molecules are shown by their SMILES. Where a name gives a salt, the structure may show the parent alone. A value given as a limit tells only on which side of the number the result lay.

On to `Clc1ccc(Nc2nccc3ccsc23)cn1` [Example 12, N-(6-chloropyridin-3-yl)thieno[2,3-c]pyridin-7-amine], for which the EC50 (commonly the concentration at which the effect is half-maximal) lay within 1 to 10 µM.

For the compound `Clc1ccc(Nc2nccc3scnc23)cn1` [Example 13, N-(6-chloropyridin-3-yl)thiazolo[4,5-c]pyridin-4-amine], the EC50 lay within 1 to 10 µM.

Regarding `Clc1ccc(Nc2nccc3cc[nH]c23)cn1` [Example 14, N-(6-chloropyridin-3-yl)-1H-pyrrolo[2,3-c]pyridin-7-amine], the EC50 was in the range of 1 to 10 µM.

For `COc1cnc(Nc2ccc(Cl)nc2)c2[nH]ccc12` [Example 15, N-(6-chloropyridin-3-yl)-4-methoxy-1H-pyrrolo[2,3-c]pyridin-7-amine formate], the 50% effective concentration (EC50) lay within 1 to 10 µM.

Consider `Clc1ccc(Nc2nccc3ccoc23)cn1` [Example 16, N-(6-chloropyridin-3-yl)furo[2,3-c]pyridin-7-amine formate], for which the EC50 fell in the range of 1 to 10 µM.

As to `Cc1csc2c(Nc3ccc(Cl)nc3)nccc12` [Example 17, N-(6-chloropyridin-3-yl)-3-methylthieno[2,3-c]pyridin-7-amine], the EC50 fell in the range of 1 to 10 µM.

Regarding `Fc1ccc2c(Nc3ccc(Cl)nc3)nccc2c1` [Example 18, N-(6-chloropyridin-3-yl)-6-fluoroisoquinolin-1-amine formate], the EC50 was in the range of 1 to 10 µM.

`COc1ccc2c(Nc3ccc(Cl)nc3)nccc2c1` [Example 19, N-(6-chloropyridin-3-yl)-6-methoxyisoquinolin-1-amine formate]: the EC50 was 1 to 10 µM.

As to `Cc1ccc2c(Nc3ccc(Cl)nc3)nccc2c1` [Example 20, N-(6-chloropyridin-3-yl)-6-methylisoquinolin-1-amine formate], the EC50 was 1 to 10 µM.

On to `Clc1ccc2c(Nc3ccc(Cl)nc3)nccc2c1` [Example 21, 6-chloro-N-(6-chloropyridin-3-yl)isoquinolin-1-amine], for which the EC50 was in the range of 10 to 30 µM.

Turning to `Fc1cccc2c(Nc3ccc(Cl)nc3)nccc12` [Example 22, N-(6-chloropyridin-3-yl)-5-fluoroisoquinolin-1-amine], the EC50 was 1 to 10 µM.

Turning to `Fc1ccc2c(Nc3cnc(Cl)nc3)nccc2c1` [Example 23, N-(2-chloropyrimidin-5-yl)-6-fluoroisoquinolin-1-amine], the EC50 was 1 to 10 µM.

Take `Cc1ncc(Nc2nccc3cc(OCC4CC4)ccc23)cn1` [Example 24, 6-(cyclopropylmethoxy)-N-(2-methylpyrimidin-5-yl)isoquinolin-1-amine]: the EC50 lay within 1 to 10 µM.

As to `Cc1ncc(Nc2nccc3cc(OCC4CCOC4)ccc23)cn1` (centres unmarked) [Example 25, N-(2-methylpyrimidin-5-yl)-6-((tetrahydrofuran-3-yl)methoxy)isoquinolin-1-amine], the EC50 lay within 1 to 10 µM.

`Cc1ncc(Nc2nccc3cc(OCC(F)F)ccc23)cn1` [Example 26, 6-(2,2-difluoroethoxy)-N-(2-methylpyrimidin-5-yl)isoquinolin-1-amine]: the half-maximal effective concentration (EC50) is 1 to 10 µM.

As for `Cc1ncc(Nc2nccc3cc(OCC4CCC(C)(C)O4)ccc23)cn1` (centres unmarked) [Example 27, 6-((5,5-dimethyltetrahydrofuran-2-yl)methoxy)-N-(2-methylpyrimidin-5-yl)isoquinolin-1-amine], the EC50 lay in the range of 1 to 10 µM.

As for `Cc1ccc(Nc2nccc3cc(OCC4CC4)ccc23)cn1` [Example 28, 6-(cyclopropylmethoxy)-N-(6-methylpyridin-3-yl)isoquinolin-1-amine], the EC50 was in the range of 1 to 10 µM.

Regarding `CC(Oc1ccc2c(Nc3ccc(Cl)nc3)nccc2c1)C1CC1` (centres unmarked) [Example 29, N-(6-chloropyridin-3-yl)-6-(1-cyclopropylethoxy)isoquinolin-1-amine], the EC50 lay in the range of 1 to 10 µM.

As to `Clc1ccc(Nc2nccc3occc23)cn1` [Example 30, N-(6-chloropyridin-3-yl)furo[3,2-c]pyridin-4-amine formate], the EC50 lay in the range of 1 to 10 µM.

Take `Clc1ccc(Nc2nccc3cccnc23)cn1` [Example 31, N-(6-chloropyridin-3-yl)-1,7-naphthyridin-8-amine formate]: the EC50 fell in the range of 1 to 10 µM.

In the case of `Clc1ncc(Nc2nccc3cccnc23)cn1` [Example 32, N-(2-chloropyrimidin-5-yl)-1,7-naphthyridin-8-amine], the EC50 fell in the range of 1 to 10 µM.

Take `Clc1ccc(Nc2nccc3ccccc23)cn1` [Example 33, N-(6-chloropyridin-3-yl)isoquinolin-1-amine]: the EC50 is 1 to 10 µM.

On to `CS(C)(=O)=Nc1ccc2c(Nc3ccc(Cl)nc3)nccc2c1` [Example 34, ((1-((6-chloropyridin-3-yl)amino)isoquinolin-6-yl)imino)dimethyl-λ^6-sulfanone], for which the EC50 lay within 1 to 10 µM.

For the compound `Cc1cnc(Nc2ccc(Cl)nc2)c2[nH]ccc12` [Example 35, N-(6-chloropyridin-3-yl)-4-methyl-1H-pyrrolo[2,3-c]pyridin-7-amine], the EC50 lay in the range of 1 to 10 µM.

As to `COc1cc(Nc2nccc3cc(OCC4(C)COC4)ccc23)cnc1Cl` [Example 36, N-(6-chloro-5-methoxypyridin-3-yl)-6-((3-methyloxetan-3-yl)methoxy)isoquinolin-1-amine], the EC50 is below 1 µM.

Regarding `COCCOc1ccc2c(Nc3cnc(C)nc3)nccc2c1` [Example 37, 6-(2-methoxyethoxy)-N-(2-methylpyrimidin-5-yl)isoquinolin-1-amine], the EC50 is 10 to 30 µM.

Turning to `Cc1ncc(Nc2nccc3cc(OCCOC4CC4)ccc23)cn1` [Example 38, 6-(2-cyclopropoxyethoxy)-N-(2-methylpyrimidin-5-yl)isoquinolin-1-amine], the EC50 was 10 to 30 µM.

Take `Clc1ccc(Nc2nccc3cc(OCCOC4CC4)ccc23)cn1` [Example 39, N-(6-chloropyridin-3-yl)-6-(2-cyclopropoxyethoxy)isoquinolin-1-amine]: the EC50 is 1 to 10 µM.

As to `N#CC12CC(COc3ccc4c(Nc5cnc(Cl)nc5)nccc4c3)(C1)C2` [Example 40, 3-(((1-((2-chloropyrimidin-5-yl)amino)isoquinolin-6-yl)oxy)methyl)bicyclo[1.1.1]pentane-1-carbonitrile], the EC50 was below 1 µM.

Consider `CC(C)C1(COc2ccc3c(Nc4cnc(Cl)nc4)nccc3c2)COC1` [Example 41, N-(2-chloropyrimidin-5-yl)-6-((3-isopropyloxetan-3-yl)methoxy)isoquinolin-1-amine], for which the EC50 was below 1 µM.

With `CC1(COc2ccc3c(Nc4cnc(Cl)c(O)c4)nccc3c2)COC1` [Example 42, 2-chloro-5-((6-((3-methyloxetan-3-yl)methoxy)isoquinolin-1-yl)amino)pyridin-3-ol], the EC50 is below 1 µM.

Turning to `FC(F)c1ccc(Nc2nccc3cc(OCC4(F)CC4)ccc23)cn1` [Example 43, N-(6-(difluoromethyl)pyridin-3-yl)-6-((1-fluorocyclopropyl)methoxy)isoquinolin-1-amine], the EC50 was at least 30 µM.

Take `CCc1ncc(Nc2nccc3cc(OCC4(F)CC4)ccc23)cn1` [Example 44, N-(2-ethylpyrimidin-5-yl)-6-((1-fluorocyclopropyl)methoxy)isoquinolin-1-amine]: the EC50 is 10 to 30 µM.

For the compound `Cc1ncc(Nc2nccc3cc(OCC4(F)CC4)ccc23)cc1Cl` [Example 45, N-(5-chloro-6-methylpyridin-3-yl)-6-((1-fluorocyclopropyl)methoxy)isoquinolin-1-amine], the concentration for a half-maximal effect (EC50) was at least 30 µM.

In the case of `COc1ncc(Nc2nccc3cc(OCC4(F)CC4)ccc23)cn1` [Example 46, 6-((1-fluorocyclopropyl)methoxy)-N-(2-methoxypyrimidin-5-yl)isoquinolin-1-amine], the EC50 lay within 1 to 10 µM.

As for `FC1(COc2ccc3c(Nc4ccc(C(F)(F)F)nc4)nccc3c2)CC1` [Example 47, 6-((1-fluorocyclopropyl)methoxy)-N-(6-(trifluoromethyl)pyridin-3-yl)isoquinolin-1-amine], the EC50 is at least 30 µM.

For `FC1(COc2ccc3c(Nc4cncc(Cl)c4)nccc3c2)CC1` [Example 48, N-(5-chloropyridin-3-yl)-6-((1-fluorocyclopropyl)methoxy)isoquinolin-1-amine], the EC50 is 1 to 10 µM.

Turning to `FC1(COc2ccc3c(Nc4cncnc4)nccc3c2)CC1` [Example 49, 6-((1-fluorocyclopropyl)methoxy)-N-(pyrimidin-5-yl)isoquinolin-1-amine], the half-maximal effective concentration (EC50) is 1 to 10 µM.

With `N#CC1(COc2ccc3c(Nc4ccc(Cl)nc4)nccc3c2)CCOCC1` [Example 50, 4-(((1-((6-chloropyridin-3-yl)amino)isoquinolin-6-yl)oxy)methyl)tetrahydro-2H-pyran-4-carbonitrile], the EC50 is below 1 µM.

On to `Clc1ccc(Nc2nccc3cc(OCc4ccncn4)ccc23)cn1` [Example 51, N-(6-chloropyridin-3-yl)-6-(pyrimidin-4-ylmethoxy)isoquinolin-1-amine], for which the half-maximal effective concentration (EC50) is 1 to 10 µM.

`FC1(COc2ccc3c(Nc4ccc(Cl)nc4)nccc3c2)COC1` [Example 52, N-(6-chloropyridin-3-yl)-6-((3-fluorooxetan-3-yl)methoxy)isoquinolin-1-amine]: the EC50 was below 1 µM.
